Columns and labels:
[1] = Cytotoxicity in HeLa cells without OC43 virus; format: cell-based; conditions: human, HeLa cells (uninfected), in parallel
Protocol: (§1) The human beta-coronavirus OC43 was purchased from ATCC (Manassas, VA) and propagated using HCT-8 human colorectal epithelial cells (ATCC). HeLa human cervical epithelial cells (ATCC) were used as susceptible host cell lines and were cultured using EMEM media, supplemented with 10% fetal bovine serum (FBS), 1% (v/v) penicillin/streptomycin (P/S), 1% (v/v) HEPES and 1% (v/v) cellgro Glutagro™ supplement (all Corning, Manassas, VA) at 37° C. For the OC43 antiviral assay, 1.5×10^4 HeLa cells per well were plated in 100 μL complete media in white 96-well plates with clear bottoms at 37° C. for up to 24 h to facilitate attachment and allow cells to recover from seeding stresses. Next day, the cell culture medium was removed. Serially diluted compounds in 100 μL assay media (EMEM, 2% FBS, 1% P/S, 1% cellgro Glutagro™ supplement, 1% HEPES) were added to the cells and incubated for 4 h at 37° C. in a humidified 5% CO2 incubator. 100 μL of OC43 virus stock was diluted to a concentration known to produce optimal cytopathic effect, inducing 80-90% reduction in cell viability. 96-well plates were incubated for 6 days at 33° C.; each plate contains uninfected control wells as well as virus-infected wells that were not treated with compound. Cytotoxicity plates without the addition of OC43 virus were carried out in parallel. At the end of the incubation period, 100 μL cell culture supernatant was replaced with 100 μL cell-titer-glo reagent (Promega, Madison, WI) and incubated for at least 10 min at rt prior to measuring luminescence. Luminescence was measured on a Perkin Elmer (Waltham, MA) Envision plate reader. Antiviral % inhibition was calculated as follows: [(Compound treated cells infected sample)−(no compound infected control)]/[(Uninfected control)−(no compound infected control)]*100; Using GraphPad (San Diego, CA) prism software version 8.3.1, the antiviral dose-response plot was generated as a sigmoidal fit, log(inhibitor) vs response-variable slope (four parameters) model and the EC50 was calculated which is the predicted compound concentration corresponding to a 50% inhibition of the viral cytopathic effect.
(§2) Table 2 indicates related EC50 and CC50 values for the tested compounds ‘A’ indicates an EC50<100 nM, ‘B’ indicates an EC50 of ≥100 nM and <1000 nM, ‘C’ indicates an EC50≥1000 nM and <10000 nM and ‘D’ indicates an EC50≥10000 nM and <100000 nM. For CC50, the values are reported in micromolar (M), ‘A’ indicates a CC50≥10000 nM and ‘B’ indicates a CC50≥1 μM and <10 μM.

[2] = system: human beta-coronavirus OC43; assay: OC43 coronavirus antiviral assay in HeLa cells; format: cell-based; conditions: Betacoronavirus 1, 144 h, OC43, 6 days at 33° C., cell-titer-glo
Protocol: as §1, §2

SARS-Cov-2 3CLpro = target: T1, SARS-Cov-2 3CLpro (Severe acute respiratory syndrome coronavirus 2, UniProt P0DTD1); assay: SARS-Cov-2 3CLpro protease assay (SAMDI-MS); format: biochemical; conditions: 30 mins preincubation, duplex peptide substrates; read-out: SARS-Cov-2 (3CLpro IC50)
T1 construct: 3CLpro was added using a Multidrop Combi

in vitro = conditions: human
[3] = system: SARS-CoV-2 B.1.1.7 lineage; assay: microbe, parasite or virus in culture; format: cell-based; conditions: Severe acute respiratory syndrome coronavirus 2, 96 h; read-out: A549-dual_ACE2_TMPRSS2 (EC50)

Row | Compound | CC50 at 6 days [1] [nM] | EC50 [2] [nM] | IC50 (SARS-Cov-2 3CLpro) [nM] | CC50 (in vitro) [nM] | EC50 [3] [nM]
1 | CC(C)(C)[C@H](NC(=O)C(F)(F)F)C(=O)N1C[C@H]2[C@@H]([C@H]1C(=O)NC(C#N)c1nc[nH]n1)[C@H]1C=C[C@@H]2C1 (stereo partly drawn) [Compound 4, (1R,2S,3S,6R,7S)—N-[cyano(1H-1,2,4-triazol-3-yl)methyl]-4-[(2S)-3,3-dimethyl-2-(2,2,2-trifluoroacetamido)butanoyl]-4-azatricyclo[5.2.1.0^{2,6}]dec-8-ene-3-carboxamide] | ≥ 10000 | 1000 to 10000 | 200 to 2000 |  | 
2 | CC(C)(C)[C@H](NC(=O)C(F)(F)F)C(=O)N1C[C@H]2[C@@H]([C@H]1C(=O)NC1(C#N)CCc3ccncc31)[C@H]1C=C[C@@H]2C1 (stereo partly drawn) [Compound 5, (1R,2S,3S,6R,7S)—N-{7-cyano-5H,6H-cyclopenta[c]pyridin-7-yl}-4-[(2S)-3,3-dimethyl-2-(2,2,2-trifluoroacetamido)butanoyl]-4-azatricyclo[5.2.1.0^{2,6}]dec-8-ene-3-carboxamide] | ≥ 10000 | 1000 to 10000 | 200 to 2000 | > 1000 | ≥ 1000
3 | Cn1cc(C(C#N)NC(=O)[C@@H]2[C@@H]3[C@H](CN2C(=O)[C@@H](NC(=O)C(F)(F)F)C(C)(C)C)[C@@H]2C=C[C@H]3C2)cn1 (stereo partly drawn) [Compound 6, (1R,2S,3S,6R,7S)—N-[cyano(1-methylpyrazol-4-yl)methyl]-4-[(2S)-3,3-dimethyl-2-(2,2,2-trifluoroacetamido)butanoyl]-4-azatricyclo[5.2.1.0^{2,6}]dec-8-ene-3-carboxamide] | ≥ 10000 | 1000 to 10000 | 20 to 200 | > 1000 | 100 to 1000
4 | CC(C)(C)[C@H](NC(=O)C(F)(F)F)C(=O)N1C[C@@H]2[C@H]3C[C@@H]([C@@H]2[C@H]1C(=O)NC(C#N)c1cncc2ccccc12)[C@H](F)C3 (stereo partly drawn) [Compound 7, (1S,2R,3S,6R,7S,9R)—N-[cyano(isoquinolin-4-yl)methyl]-4-[(2S)-3,3-dimethyl-2-(2,2,2-trifluoroacetamido)butanoyl]-9-fluoro-4-azatricyclo[5.2.1.0^{2,6}]decane-3-carboxamide] | ≥ 10000 | < 100 | < 20 | > 1000 | < 100
5 | N#CC(NC(=O)[C@@H]1[C@@H]2[C@H](CN1C(=O)c1cc3c(F)cc(F)cc3[nH]1)[C@@H]1C=C[C@H]2C1)c1cncc2ccccc12 (stereo partly drawn) [Compound 8, (1R,2S,3S,6R,7S)—N-[cyano(isoquinolin-4-yl)methyl]-4-(4,6-difluoro-1H-indole-2-carbonyl)-4-azatricyclo[5.2.1.0^{2,6}]dec-8-ene-3-carboxamide] | 1000 to 10000 | 100 to 1000 | 20 to 200 | > 1000 | 100 to 1000
6 | CC(C)(C)[C@H](NC(=O)C(F)(F)F)C(=O)N1C[C@@H]2[C@H]3C[C@@H]([C@@H]2[C@H]1C(=O)NC(C#N)c1cncc2cccnc12)[C@H](F)C3 (stereo partly drawn) [Compound 9, (1S,2R,3S,6R,7S,9R)—N-[cyano(1,6-naphthyridin-8-yl)methyl]-4-[(2S)-3,3-dimethyl-2-(2,2,2-trifluoroacetamido)butanoyl]-9-fluoro-4-azatricyclo[5.2.1.0^{2,6}]decane-3-carboxamide] | ≥ 10000 | < 100 | < 20 | > 1000 | < 100
7 | CC(C)(C)[C@H](NC(=O)C(F)(F)F)C(=O)N1C[C@@H]2[C@H]3C[C@@H]([C@@H]2[C@H]1C(=O)NC(C#N)c1cncc(Cl)c1Cl)[C@H](F)C3 (stereo partly drawn) [Compound 10, (1S,2R,3S,6R,7S,9R)—N-[cyano(4,5-dichloropyridin-3-yl)methyl]-4-[(2S)-3,3-dimethyl-2-(2,2,2-trifluoroacetamido)butanoyl]-9-fluoro-4-azatricyclo[5.2.1.0^{2,6}]decane-3-carboxamide] | ≥ 10000 | 100 to 1000 | < 20 | > 1000 | ≥ 1000
8 | CC(C)(C)[C@H](NC(=O)C(F)(F)F)C(=O)N1C[C@H]2[C@@H]([C@H]1C(=O)NC(C#N)c1cncc3ccccc13)C2(C)C (stereo partly drawn) [Compound 11, (1R,2S,5S)—N-[cyano(isoquinolin-4-yl)methyl]-3-[(2S)-3,3-dimethyl-2-(2,2,2-trifluoroacetamido)butanoyl]-6,6-dimethyl-3-azabicyclo[3.1.0]hexane-2-carboxamide] | ≥ 10000 | < 100 |  | > 1000 | < 100
9 | CC(C)(C)[C@H](NC(=O)C(F)(F)F)C(=O)N1C[C@@H]2[C@@H]3C[C@H]([C@@H]2[C@H]1C(=O)NC(C#N)c1cncc(-c2ccccc2)c1)[C@H](F)C3 (stereo partly shown) [Compound 14] | ≥ 10000 | 10000 to 100000 |  | > 1000 | 100 to 1000
10 | CC(C)(C)[C@H](NC(=O)C(F)(F)F)C(=O)N1C[C@H]2[C@@H]([C@H]1C(=O)NC(C#N)c1cnc3ccccc3c1)[C@H]1C=C[C@@H]2C1 (stereo partly shown) [Compound 15] | ≥ 10000 | 100 to 1000 | < 20 | > 1000 | 100 to 1000
11 | CC(C)(C)[C@H](NC(=O)C(F)(F)F)C(=O)N1CC2(CC2)C[C@H]1C(=O)NC(C#N)c1cnn2ccccc12 (stereo partly drawn) [Compound 17, (6S)—N-(cyano(pyrazolo[1,5-a]pyridin-3-yl)methyl)-5-((S)-3,3-dimethyl-2-(2,2,2-trifluoroacetamido)butanoyl)-5-azaspiro[2.4]heptane-6-carboxamide] | ≥ 10000 | 100 to 1000 | 20 to 200 | > 1000 | 100 to 1000
12 | CC(C)(C)[C@H](NC(=O)C(F)(F)F)C(=O)N1CCC2(CC2)C[C@H]1C(=O)NC(C#N)c1cnn2ccccc12 (stereo partly shown) [Compound 18] | ≥ 10000 | 100 to 1000 | < 20 | > 1000 | 100 to 1000
13 | COc1cccn2ncc(C(C#N)NC(=O)[C@@H]3[C@@H]4[C@H](CN3C(=O)[C@@H](NC(=O)C(F)(F)F)C(C)(C)C)[C@H]3C[C@@H]4[C@H](F)C3)c12 (stereo partly shown) [Compound 19] | ≥ 10000 | 100 to 1000 | < 20 | > 1000 | < 100
14 | CC(C)(C)[C@H](NC(=O)C(F)(F)F)C(=O)N1C[C@@H]2[C@H]3C[C@@H]([C@@H]2[C@H]1C(=O)NC(C#N)c1cnn2cc(F)ccc12)[C@H](F)C3 (stereo partly shown) [Compound 20] | ≥ 10000 | 100 to 1000 | < 20 | > 1000 | < 100
15 | CC(C)(C)[C@H](NC(=O)C(F)(F)F)C(=O)N1C[C@@H]2[C@H]3C[C@@H]([C@@H]2[C@H]1C(=O)NC(C#N)c1cncc2cnccc12)[C@H](F)C3 (stereo partly shown) [Compound 22] | ≥ 10000 | 1000 to 10000 | < 20 | > 1000 | 100 to 1000
16 | N#CC(NC(=O)[C@@H]1[C@@H]2[C@H](CN1C(=O)[C@H](CC1CC1)NC(=O)C(F)(F)F)[C@H]1C[C@@H]2[C@H](F)C1)c1cnn2ccccc12 (stereo partly shown) [Compound 24] | ≥ 10000 | 100 to 1000 | < 20 | > 1000 | 100 to 1000
17 | CC(C)(C)[C@H](NC(=O)C(F)(F)F)C(=O)N1C[C@@H]2[C@H]3C[C@@H]([C@@H]2[C@H]1C(=O)NC(C#N)c1cnn2ccccc12)[C@H](F)C3 (stereo partly shown) [Compound 25] | ≥ 10000 | 100 to 1000 | < 20 | > 1000 | 100 to 1000
18 | COc1cccc2cncc(C(C#N)NC(=O)[C@@H]3[C@@H]4[C@H](CN3C(=O)[C@@H](NC(=O)C(F)(F)F)C(C)(C)C)[C@H]3C[C@@H]4[C@H](F)C3)c12 (stereo partly shown) [Compound 26] | ≥ 10000 | < 100 | < 20 | > 1000 | < 100
19 | CC(C)(C)[C@H](NC(=O)C(F)(F)F)C(=O)N1C[C@@H]2[C@H]3C[C@@H]([C@@H]2[C@H]1C(=O)NC(C#N)c1cncc2c1OCCO2)[C@H](F)C3 (stereo partly shown) [Compound 27] | ≥ 10000 | 1000 to 10000 | 20 to 200 | > 1000 | ≥ 1000
